Test results taken from patent publication US12285399B2, “Composition comprising bornyl acetate or pharmaceutically acceptable salt thereof as active ingredient for prevention or treatment of stress-related disorder” (UNIVERSITY-INDUSTRY COOPERATION GROUP OF KYUNG HEE …, priority 2019, dated 2025).

Tested on: c-Fos
Assay: Immunohistochemical staining for c-Fos in brain of CRS model
Assay type: in vivo, C57BL/6NTac mice
Conditions: hippocampus and amygdala, CRS+BA group, 100 mg/kg oral
Procedure: In order to confirm the antidepressant efficacy of bornyl acetate on the animal model of stress depression, an animal model of depression induced by chronic restrained stress (CRS) was prepared. Specifically, the animal model, 8-week-old male C57BL/6NTac mice after birth (Narabiotechnology, Korea; weight 22-24 g) had been stabilized for 1 week. A 50 ml conical tube (SPL Life sciences, Pocheon, Korea) was punched to make a hole, thereby making a restraint frame. The mice were put in the frame and restrained for 2 hours every day for 14 days. After restraint, the mice were allowed to freely ingest water and food in the home cage. Bornyl acetate (100 mg/kg) was administered orally 1 hour before induction of restraint stress every day. 14 days later, the mice were anesthetized, and 4% paraformaldehyde was perfused into the heart. Then, the mice were fixed, and the brain was excised. The excised brain was immersed in 4% paraformaldehyde and fixed at 4° C. for one more day. It was then changed to 30% sucrose, and the brain was stored at 4° C. for 3 days or more to prevent freeze damage. The brain was cut into a thickness of 30 μm using a cryocut microtome to prepare the frozen sections. […]

Compound: CC(=O)OC1CC2CCC1(C)C2(C)C (stereo not shown) [BA, bornyl acetate]
- distribution of cells immunostained by c-Fos: consistent
